Series [1] concerns rats with middle cerebral artery occlusion (MCAO). The series can be described thus: Cylinder test, overall asymmetry (%), MCAO rats (Example 2). In kind it is in vivo, Sprague Dawley rat. The method, then: Dosing and Treatment: Rats were treated in accordance with the dosing schedule shown in Tables 2A, 2B, 3 and FIG. 2, with each Phase being a two week period of time. A solution of 4-AP was used in this experiment. Dosing was started at 4 weeks after ischemic event. 4-aminopyridine was dissolved in water for injection (WFI, Cellgro) and sterile filtered. […] Vehicle control treatment was WFI delivered at 2 mL/kg by gastric gavage. […] Starting on day 30 after MCAO (Day 30, start of phase 1), the animals received gavage dosing of solutions (2 mL/kg) approximately 12 hours apart, for a total of five doses. The same schedule was repeated with different treatment on Day 44 and Day 58 for phase 2 and 3 of the study, respectively. Animals were not treated during the 10 days between phases (washout period). Treatment groups: Dosing was started 4 weeks after MCAO surgery. During these 4 weeks, weekly behavioral assessments, as defined below, were performed. Two dose levels of 4-AP plus vehicle control were assessed, with treatment starting at 4 weeks after ischemic event. […] Animals were given the first dose and behavioral assessments were performed starting 60 minutes after dosing. Animals then received the second dose that day at the appropriate time and b.i.d (preferably every 12 hours) thereafter for 2 more days (3 total days of dosing, 5 total doses). One hour after the 5th dose, animals were subjected to behavioral assessments as defined below. Following the final behavioral assessment, drug was withdrawn for 10 or 11 days, behavior was re-assessed, and then animals were re-challenged with a cross-over treatment (Phase 2 of Table 2B) as described in Tables 2A, 2B and 3, followed by the same behavioral testing and dosing regimen. This cross-over was repeated one more time as well (Phase 3 of Table 2B) (see FIG. 2). Cylinder Test: Evaluation was performed at Day −1 (pre-operation), Day 7, Day 21, Day 30, Day 32, Day 44, Day 46, Day 58, Day 60. This test assessed limb use asymmetry. Rats were placed in a transparent cylinder (20 cm in diameter and 30 cm in height) for 3-6 minutes. A mirror was placed behind the cylinder to determine forelimb movements when animal was turned away from the camera. […] Simultaneous use of both left and right forelimbs while contacting the wall during a full rear was also scored. A total number of 20 forelimb placings were counted during a trial. Data was expressed in terms of percent use of the non-impaired and or impaired forelimb relative to the total number of limb use observations for wall movements.

The test system is the same in series [2]. Nature of the series: Forelimb placing test, MCAO rats, double crossover study (Example 2). Format: in vivo, Sprague Dawley rat. The procedure:
4-AP was evaluated for its ability to promote functional sensorimotor improvement following ischemic stroke in rats with stable motor deficits at times remote from their ischemic events. The animal model mimics the conditions in human ischemic stroke and is produced by middle cerebral artery occlusion (MCAO), which results in extensive infarction in cerebral cortex and striatum, including the cortical spinal tract (white matter).
In particular, the MCAO model in Sprague Dawley rats that was utilized in the experiments presented below mimics the conditions in human ischemic stroke. In this model, focal cerebral infarcts were made by permanent occlusion of the proximal right middle cerebral artery (MCA) using a modification of the method of Tamura et al. (No To Shinkei 1986; 38:747-51). Briefly, the temporalis muscle was bisected and reflected through an incision made midway between the eye and the ear canal. The proximal MCA was exposed through a subtemporal craniectomy without removing the zygomatic arch and without transecting the facial nerve.
Dosing and Treatment: Rats were treated in accordance with the dosing schedule shown in Tables 2A, 2B, 3 and FIG. 2, with each Phase being a two week period of time. A solution of 4-AP was used in this experiment. Dosing was started at 4 weeks after ischemic event. 4-aminopyridine was dissolved in water for injection (WFI, Cellgro) and sterile filtered. Final concentrations of 0.315 mg/mL or 1.0 mg/mL of 4-aminopyridine were delivered at 2 mL/kg by gastric gavage, resulting in final doses of 0.63 mg/kg and 2 mg/kg respectively. Vehicle control treatment was WFI delivered at 2 mL/kg by gastric gavage. This study was divided into three treatment phases (1-3) with each randomized cohort of animals receiving a different dose level during each of the treatment phases. Starting on day 30 after MCAO (Day 30, start of phase 1), the animals received gavage dosing of solutions (2 mL/kg) approximately 12 hours apart, for a total of five doses. The same schedule was repeated with different treatment on Day 44 and Day 58 for phase 2 and 3 of the study, respectively. Animals were not treated during the 10 days between phases (washout period).
Treatment groups: Dosing was started 4 weeks after MCAO surgery. During these 4 weeks, weekly behavioral assessments, as defined below, were performed. Two dose levels of 4-AP plus vehicle control were assessed, with treatment starting at 4 weeks after ischemic event. […] Following the final behavioral assessment, drug was withdrawn for 10 or 11 days, behavior was re-assessed, and then animals were re-challenged with a cross-over treatment (Phase 2 of Table 2B) as described in Tables 2A, 2B and 3, followed by the same behavioral testing and dosing regimen. […]

For series [3] the following is noted: Hayes et al., J. Clin. Pharmacol. 2003; cited from earlier work.

Several values for one entry are separate records, joined by “and”; a condition that tells them apart may be missing. Equal entries are not always repeated.

`Nc1ccncc1` [4-aminopyridine]: in series [1] (Group 2, D30, treatment phase 1 (low-dose 4-AP), individual animals and Mean (N=15), listed as 4-AP), the “Cylinder Test Score (Overall Asymmetry (%)) Group 2, D30” value was 0.00% and 75.00% and 23.33% and 20.00% and 6.90%. For the same compound, in series [1] (Group 2, D32, treatment phase 1 (low-dose 4-AP), individual animals and Mean (N=15), listed as 4-AP), the “Cylinder Test Score (Overall Asymmetry (%)) Group 2, D32” value is 33.33% and 16.00% and 20.00% and 50.00% and 0.00%. Besides, the “Cylinder Test Score (Overall Asymmetry (%)) Group 2, D58” value in series [1] (Group 2, D58, treatment phase 3 (high-dose 4-AP), individual animals and Mean (N=12), listed as 4-AP) is 50.00% and 30.00% and 88.00% and 33.33%. Further, in series [1] (Group 2, D60, treatment phase 3 (high-dose 4-AP), individual animals and Mean (N=14), listed as 4-AP), the “Cylinder Test Score (Overall Asymmetry (%)) Group 2, D60” value is 64.00% and 20.00% and 10.00% and 0.00% (3×) and −100.00% (2×). Further, the “Cylinder Test Score (Overall Asymmetry (%)) Group 3, D44” value in series [1] (Group 3, D44, treatment phase 2 (high-dose 4-AP), individual animals and Mean (N=13), listed as 4-AP) is 40.00% and 20.00% and 100.00% and 0.00%. Besides, the “Cylinder Test Score (Overall Asymmetry (%)) Group 3, D46” value in series [1] (Group 3, D46, treatment phase 2 (high-dose 4-AP), individual animals and Mean (N=13), listed as 4-AP) is 50.00% and −60.00% and 0.00% and 6.90%. In addition, the “Cylinder Test Score (Overall Asymmetry (%)) Group 3, D58” value in series [1] (Group 3, D58, treatment phase 3 (low-dose 4-AP), individual animals and Mean (N=15), listed as 4-AP) was 0.00% (2×) and 5.00%. For the same compound, the “Cylinder Test Score (Overall Asymmetry (%)) Group 3, D60” value in series [1] (Group 3, D60, treatment phase 3 (low-dose 4-AP), individual animals and Mean (N=15), listed as 4-AP) was −25.00% and 0.00% (2×) and 16.00%. Moreover, in series [1] (reversible and dose-dependent), the “Effect on body symmetry and coordination, cylinder test (FIG. 7)” value was “effective to improve body symmetry and coordination”. Also, in series [2] (0.63 mg/kg b.i.d. p.o., level 0.05), the “Forelimb function, low dose compared to vehicle, first mixed model” value was “didn't show statistical significant improvement”. Besides, the “Forelimb function, low dose compared to vehicle, second mixed model” value in series [2] (0.63 mg/kg b.i.d. p.o., p<0.0001) is on record as “significant difference”. The “Forelimb function, high dose compared to low dose and vehicle” value in series [2] (2 mg/kg b.i.d. p.o., first mixed model, p=0.0334 vs low, p=0.001 vs vehicle) was “significantly improved the forelimb function”. In addition, the “Effect on forelimb function (FIG. 3)” value in series [2] (low or high dose, 4 weeks post ischemic brain injury, dose-responsive, reversible) was “effective to improve forelimb function”. Also, in series [3], the half life was 1 to 1.5 h.

The values are drawn from US20160067232A1, “METHODS FOR TREATING A STROKE-RELATED SENSORIMOTOR IMPAIRMENT USING AMINOPYRIDINES” (Acorda Therapeutics, Inc., priority 2011, published 2016).
